According to US20080131511A1, “Pharmaceutical Composition for Treatment of Tear and Salivary Fluid Drying” (Astellas Pharma, Inc., priority 2004, published 2008):
Where two headings read alike, the source gives them in different places.

Tests used:
sweat gland = test: Sweating (number of activated sweat glands on footpad) after subcutaneous bolus administration; format: in vivo, mouse (male Balb/c)
Method: Male Balb/c mice were used in the test.
(§1) The compound A was dissolved in physiological saline to a concentration of 1, 3, 10, 30 or 100 mg/5 ml, and 5 ml/kg of the drug solution was administered under the dorsal skin. Secreted amounts of salivary and tear fluid were measured just before the administration of compound A and 10, 20, 30, 40 and 50 minutes after the administration. The sweating action was measured 10 minutes after the administration. Also, the growth acceleration action was measured 6 hours after the administration.
as §1, with “Pilocarpine was dissolved” for “The compound A was dissolved”, “concentration of 0.03, 0.1, 0.3, 1, 3 or 10 mg/5 ml, or cevimeline to a concentration of 0.3, 1, 3,” for “concentration of 1, 3,”, “administration of pilocarpine or cevimeline and 10,” for “administration of compound A and 10,”
The footpad of right hind paw of a mouse anesthetized with diethyl ether was wiped with absorbent cotton, and then 20 μl of each of 5 mg/ml iodine-ethanol solution and 50 mg/ml starch-mineral oil suspension was applied thereto. The number of black spots on footpad was counted and used as the number of activated sweat glands. In the case of the subcutaneous bolus administration test, the number of activated sweat glands 10 minutes after the administration of compound A was measured. In the case of the subcutaneous continuous administration, area under the number of activated sweat glands-versus-time curve (AUC) was calculated.
All of the test results were expressed as fold increases of the reactions of the drug-administered group versus those of the vehicle-administered group, and comparison between the drug-administered groups and the vehicle-administered group was carried out using Dunnett's t-test. P<0.05 was considered significant. Results

[1] = system: healthy male adult volunteers; test: Phase I study, single oral administration: saliva secretion; format: in vivo, human; conditions: for Increase of saliva secretion (number of subjects with the symptom): healthy male adult volunteers, 6 subjects
Method: (§2) The compound A was orally administered once to healthy male adult volunteers, and saliva secretion action and pharmacokinetics were evaluated.
(§3) Drug administration to the volunteers was carried out by a blind method.
(§4) In order to observe the volunteers carefully, saliva quantity, sweating and pharmacokinetics (concentrations of unchanged compound A in plasma and urine) were periodically measured.

[2] = Phase I study, single oral administration: pharmacokinetics in plasma; format: in vivo, human; conditions: for Tmax / AUC / half-life / Cmax: male
Method: as §2, §3, §4

[3] = system: healthy male adult volunteers; test: Phase I study, single oral administration: sweating; format: in vivo, human; conditions: for Sweating (number of subjects with the symptom): healthy male adult volunteers, 6 subjects
Method: as §2, §3, §4

[4] = system: ornithine decarboxylase (ODC) activity of parotid salivary gland; test: Ornithine decarboxylase activity of parotid salivary gland after subcutaneous bolus administration; format: in vivo, mouse (male Balb/c); conditions: mice
Method: Male Balb/c mice were used in the test. […] Also, the growth acceleration action was measured 6 hours after the administration. […] Also, the growth acceleration action was measured 6 hours after the administration. […] Thus, it can be easily analogized that the ODC activity becomes a useful index of cell growth and function of the exocrine gland. Accordingly, the ability of each drug to activate glandular tissue was evaluated by measuring ODC activity of parotid salivary gland and extra-orbital lacrimal gland. The amount of ^14CO2 formed from L-^14C-ornithine was used as the index of ODC activity. A mouse anesthetized with diethyl ether was sacrificed by bleeding, and left and right parotid salivary glands and extra-orbital lacrimal glands were isolated. After removing the attached connective tissue and fat, the isolated glandular tissues homogenized in 1.5 ml of a homogenate buffer (25 mM Tris-HCl buffer (pH 7.4) containing 0.1 mM ethylenediaminetetraacetic acid, 0.4 mM pyridoxal phosphate, 5 mM dithiothreitol and 0.1% Brij 35®) using a Potter type homogenizer and then centrifuged at 4° C., 15,000 g for 30 minutes, and the supernatant was used as the enzyme fraction. […] The ^14CO2 generated by the reaction was captured by 150 μl of 1 N NaOH soaked in a glass filter. Radioactivity of the ^14CO2 captured on the glass filter was detected using a liquid scintillation counter. The enzyme activity (pmol ^14CO2/mg protein/hour) was calculated from the measured results. All of the test results were expressed as fold increases of the reactions of the drug-administered group versus those of the vehicle-administered group, and comparison between the drug-administered groups and the vehicle-administered group was carried out using Dunnett's t-test. P<0.05 was considered significant. Results

[5] = phase I study, oral administration
[6] = human plasma, single oral 10 mg
[7] = human plasma, single oral 20 mg
[8] = human plasma, single oral 40 mg
[9] = human plasma, single oral 60 mg

## C=C1CC2(CCN(C)CC2)O[C@H]1C [compound A, (−)-(S)-2,8-dimethyl-3-methylene-1-oxa-8-azaspiro[4.5]decane]
Sweat gland; male, Balb/c, mouse, in vivo, 10 min
  dose at which a side effect was found: 30 mg/kg
Sweat gland; mice, s.c. bolus
  dose at which statistically significant sweating was found: 30 mg/kg
  sweating dose relative to dose accelerating secretion of salivary and tear fluid: 3 times
Sweat gland; mice, s.c. bolus 3 mg/kg, 10 minutes after administration
  sweating: 0.69 ± 0.19 fold increase vs. the vehicle group
Sweat gland; mice, s.c. bolus 10 mg/kg, 10 minutes after administration
  sweating: 1.3 ± 0.20 fold increase vs. the vehicle group
Sweat gland; mice, s.c. bolus 30 mg/kg, 10 minutes after administration
  sweating: 2.0 ± 0.19 fold increase vs. the vehicle group
Sweat gland; mice, s.c. bolus 100 mg/kg, 10 minutes after administration
  sweating: 2.2 ± 0.17 fold increase vs. the vehicle group
Sweat gland; mouse, bolus administration
  dose at which a side effect was not found: 10 mg/kg
[1]; single oral 5 mg
  Increase of saliva secretion (number of subjects with the symptom): 0
[1]; single oral 10 mg
  Increase of saliva secretion (number of subjects with the symptom): 2
[1]; single oral 20 mg
  Increase of saliva secretion (number of subjects with the symptom): 2
[1]; single oral 60 mg
  Increase of saliva secretion (number of subjects with the symptom): 5
[1]; [5]
  minimum dose by which increase of the salivary fluid secretion was observed: 10 mg
[2]; human plasma, single oral 5 mg
  AUC0→∞: 117.6 ± 41.5 ng/h/mL
  Cmax: 19.8 ± 5.2 ng/mL
  Tmax: 1.5 ± 0.55 h
[2]; [6]
  AUC0→∞: 180.5 ± 77.6 ng/h/mL
  Tmax: 1.17 ± 0.41 h
[2]; [7]
  AUC0→∞: 410.1 ± 106.8 ng/h/mL
  Cmax: 68.1 ± 13 ng/mL
  Tmax: 2 ± 0.63 h
[2]; [8]
  AUC0→∞: 1,010.1 ± 323.2 ng/hr/ml
  Tmax: 1.67 ± 0.82 h
[2]; [9]
  AUC0→∞: 1,482.3 ± 371.1 ng/hr/ml
  Cmax: 266 ± 25.2 ng/mL
  Tmax: 1.6 ± 0.55 h
[2]; plasma, oral, human test result which used general tablets containing the compound A
  Tmax: ~2 h
[2]; plasma, oral, human, 20 mg administration
  AUC: 410 ng·h/mL
[2]; plasma, oral, human, 20 mg administration, read-out: T1/2 (converted)
  half-life: 3.38 h
[2]; plasma, human, 40 mg oral administration
  AUC: 1010 ng·h/mL
[2]; plasma, human, oral 10 mg
  Cmax: 35.3 ± 10.5 ng/mL
[2]; plasma, human, oral 40 mg
  Cmax: 151 ± 24.1 ng/mL
[2]; human plasma, single oral 5 mg, read-out: T½ (converted)
  half-life: 3.89 ± 0.81 h
[2]; human plasma, single oral 10 mg, read-out: T½ (converted)
  half-life: 3.42 ± 0.67 h
[2]; human plasma, single oral 20 mg, read-out: T½ (converted)
  half-life: 3.88 ± 0.67 h
[2]; human plasma, single oral 40 mg, read-out: T½ (converted)
  half-life: 3.78 ± 0.59 h
[2]; human plasma, single oral 60 mg, read-out: T½ (converted)
  half-life: 3.2 ± 0.79 h
[3]; single oral 5 mg
  Sweating (number of subjects with the symptom): 0
[3]; single oral 10 mg
  Sweating (number of subjects with the symptom): 1
[3]; single oral 20 mg
  Sweating (number of subjects with the symptom): 0
[3]; single oral 40 mg
  Sweating (number of subjects with the symptom): 0
[3]; single oral 60 mg
  Sweating (number of subjects with the symptom): 5
[3]; human clinical test
  dose at which a side effect was found: 60 mg/individual
  dose at which a side effect was not found: 40 mg/individual
[3]; [5]
  maximum dose (single administration) by which sweating was not observed but the beneficial effect was observed: 40 mg
[4]; s.c. bolus 10 mg/kg, ODC activity 6 hours after administration
  Glandular cell growth Salivary gland: 0.71 ± 0.05 fold increase vs. the vehicle group
[4]; s.c. bolus 30 mg/kg, ODC activity 6 hours after administration
  Glandular cell growth Salivary gland: 0.72 ± 0.11 fold increase vs. the vehicle group
[4]; s.c. bolus 100 mg/kg, ODC activity 6 hours after administration
  Glandular cell growth Salivary gland: 2.8 ± 0.72 fold increase vs. the vehicle group

## CC1OC2(CS1)CN1CCC2CC1 (centres unmarked) [cevimeline]
Sweat gland; mice, s.c. bolus
  dose at which statistically significant sweating was found: 10 mg/kg
Sweat gland; mice, s.c. bolus 3 mg/kg, 10 minutes after administration (Table 4)
  sweating: 1.5 ± 0.29 fold increase vs. the vehicle group
Sweat gland; mice, s.c. bolus 10 mg/kg, 10 minutes after administration (Table 4)
  sweating: 2.5 ± 0.40 fold increase vs. the vehicle group
Sweat gland; mice, s.c. bolus 30 mg/kg, 10 minutes after administration (Table 4)
  sweating: 3.1 ± 0.57 fold increase vs. the vehicle group
[4]; s.c. bolus 10 mg/kg, ODC activity 6 hours after administration (Table 4)
  Glandular cell growth Salivary gland: 1.7 ± 065 fold increase vs. the vehicle group
[4]; s.c. bolus 30 mg/kg, ODC activity 6 hours after administration (Table 4)
  Glandular cell growth Salivary gland: 1.1 ± 0.33 fold increase vs. the vehicle group
[4]; s.c. bolus 100 mg/kg, ODC activity 6 hours after administration (Table 4)
  Glandular cell growth Salivary gland: 1.1 ± 0.33 fold increase vs. the vehicle group

## CC[C@@H]1C(=O)OC[C@@H]1Cc1cncn1C [pilocarpine]
Sweat gland; mice, s.c. bolus
  dose at which statistically significant sweating was found: 1 mg/kg
Sweat gland; mice, s.c. bolus 0.3 mg/kg, 10 minutes after administration
  sweating: 1.1 ± 0.16 fold increase vs. the vehicle group
Sweat gland; mice, s.c. bolus 1 mg/kg, 10 minutes after administration
  sweating: 3.1 ± 0.32 fold increase vs. the vehicle group
Sweat gland; mice, s.c. bolus 3 mg/kg, 10 minutes after administration (Table 3)
  sweating: 4.2 ± 0.29 fold increase vs. the vehicle group
[4]; s.c. bolus 1 mg/kg, ODC activity 6 hours after administration
  Glandular cell growth Salivary gland: 1.4 ± 0.48 fold increase vs. the vehicle group
[4]; s.c. bolus 3 mg/kg, ODC activity 6 hours after administration
  Glandular cell growth Salivary gland: 1.3 ± 0.54 fold increase vs. the vehicle group
[4]; s.c. bolus 10 mg/kg, ODC activity 6 hours after administration (Table 3)
  Glandular cell growth Salivary gland: 3.2 ± 1.1 fold increase vs. the vehicle group
